Laboratory results reported in a melting point compilation (Tetko et al.).

| Structure (SMILES) | melting point |
| --- | --- |
| NS(=O)(=O)CCC(=O)O | 111 to 113 °C |
| COc1cc(C=O)cc2sc(=O)oc12 | 160 to 162 °C |
| COc1ccc(Br)c(C(N)=S)c1 | 142 to 144 °C |
| O=CC(Br)C=Nc1nccs1 (configuration not stated) | 137 to 139 °C |
| N#Cc1nc(C2CC2)oc1N1CCNCC1 | 99 to 101 °C |
| Nc1[nH]ncc1-c1ccc2c(c1)OCO2 | 166 to 168 °C |
| COc1ccccc1OCC(=O)NN | 101 to 103 °C |
| O=C(O)Cc1csc(NC(=O)c2cccc(O)c2)n1 | 196 to 198 °C |
| Nc1cccc(-c2ccc3c(c2)OCCO3)n1 | 117 to 119 °C |
| O=C(Nc1nncs1)C1CCNCC1 | 202 to 204 °C |
| CS(=O)(=O)NCCN=C=S | 163 to 165 °C |
| ClCc1csc(-c2ccc3c(c2)OCO3)n1 | 106 to 108 °C |
| NNC(=S)Nc1cccnc1 | 174 to 176 °C |
| CCOC(=O)C(=O)CC(=O)c1ccc(Cl)cc1 | 62 to 64 °C |
| NCc1cc2c(cc1OC(F)F)OCO2 | 39 to 41 °C |
| COc1ncc(C)cc1N | 77 to 79 °C |
| N#Cc1cc(Br)ccc1N=C=O | 97 to 99 °C |
| COc1ccc(C(=O)C2CCOCC2)cc1 | 103 to 105 °C |
| N#Cc1ccc([N+](=O)[O-])cc1F | 69 to 71 °C |
| CC(=O)c1ccc(C(F)(F)C(=O)O)n1C | 115 to 117 °C |
| NC(=S)NCc1ccccc1 | 163 to 165 °C |
| Cn1c(Cl)cnc1CC#N | 142 to 144 °C |
| O=C(Nc1cccc(C(=O)O)c1)Nc1ccc(Cl)c(Cl)c1 | 279 to 281 °C |
| Cc1cc(-c2csc(N)n2)c(C)n1CC1CCCO1 (configuration not stated) | 112 to 116 °C |
| COc1ccc2oc(C=O)cc2c1 | 59 to 61 °C |

| Structure (SMILES) | melting point |
| --- | --- |
| CN(C)S(=O)(=O)c1cc(C(=O)O)ccc1Br | 257 to 259 °C |
| CCOc1ccc2nc(-c3ccc(N)cc3)sc2c1 | 203 to 205 °C |
| Ic1ccc(OCCc2ccccc2)cc1 | 64 to 66 °C |
| CC(=O)c1nc(-c2ccccc2)cs1 | 77 to 79 °C |
| CCOc1cc(C#N)cc(Cl)c1O | 126 to 128 °C |
| O=C(O)CN1CCCC1=O | 125 to 135 °C |
| c1nc(N2CCOCC2)c2nc[nH]c2n1 | 301 to 303 °C |
| NC(=S)c1cccc(C(F)(F)F)c1 | 66 to 68 °C |
| OCc1cc(Cl)c2nccn2c1 | 169 to 171 °C |
| CC(NC(=O)c1ccc(Br)o1)C(=O)O (configuration not stated) | 169 to 171 °C |
| Nc1ccccc1-n1cnnn1 | 84 to 86 °C |
| Clc1ccc(N2CCCC2)nn1 | 115 to 116 °C |
| BrCc1cnn(-c2ccccc2)n1 | 44 to 46 °C |
| CC(=O)N(CCc1ccccc1)CC(=O)O | 149 to 151 °C |
| O=[N+]([O-])c1ccc(S(=O)(=O)Cl)c(F)c1 | 72 to 74 °C |
| O=C(O)CCOC1CCOCC1 | 54 to 56 °C |
| COC(=O)N(C)c1ccc([N+](=O)[O-])cc1 | 108 to 110 °C |
| Cc1cc(NN)nc2ccccc12 | 146 to 148 °C |
| NC1CCCCC1Nc1cnccn1 (configuration not stated) | 59 to 61 °C |
| Cc1ccc(C=CC(=O)O)o1 | 118 to 120 °C |
| O=C(O)CCCn1cncn1 | 140 to 142 °C |
| Nc1cc(Br)cnc1-n1cccn1 | 72 to 74 °C |
| CC(C)C(Br)C(=O)N1CCOCC1 (configuration not stated) | 71 to 73 °C |
| COc1cc(C(=O)O)ccc1OCCC(C)C | 92 to 94 °C |
| COC(=O)c1ccc(Br)c(S(=O)(=O)Cl)c1 | 102 to 104 °C |

| Structure (SMILES) | melting point |
| --- | --- |
| CC(SCC(=O)Nc1ccc(Br)cc1)C(=O)O (configuration not stated) | 139 to 141 °C |
| O=c1[nH]cc(N2CCOCC2)c(=O)[nH]1 | 304 to 306 °C |
| ClCc1cc(Br)c2c(c1)OCO2 | 100 to 102 °C |
| Cc1cc(NC(=O)c2cccc(F)c2)sc1C(=O)O | 211 to 213 °C |
| CC(N)c1ccc(NS(C)(=O)=O)cc1 (configuration not stated) | 142 to 144 °C |
| CC(C)(C)c1cc(N)c(C#N)s1 | 99 to 101 °C |
| NNc1ncnc2cc(-c3ccc(F)cc3)sc12 | 237 to 239 °C |
| Cn1ccc2cc[nH]c(=O)c21 | 190 to 192 °C |
| CCC1(c2ccc(C)cc2)CC(=O)NC1=O (configuration not stated) | 76 to 78 °C |
| Cc1ccc(CO)cc1N | 108 to 110 °C |
| NC(=O)NC(=O)C(Cl)c1ccccc1 (configuration not stated) | 170 to 172 °C |
| [N-]=[N+]=NS(=O)(=O)c1cccc2c1N=S=N2 | 118 to 120 °C |
| CC(Cl)C(=O)c1c[nH]c2ncccc12 (configuration not stated) | 162 to 164 °C |
| O=C(O)c1cc(=O)c2cc(Br)ccc2[nH]1 | 297 to 299 °C |
| COc1cc(C)cc2c(C)c(C(=O)O)oc12 | 239 to 241 °C |
| Nc1ccc(Sc2ccccc2)c(Cl)c1 | 55 to 57 °C |
| COC(=O)c1cc(C)c(C)c(S(=O)(=O)Cl)c1 | 61 to 63 °C |
| Nc1cc(Cl)ccc1-n1cnnn1 | 130 to 132 °C |
| O=C(CCl)NCC(=O)Nc1ccccc1Br | 218 to 220 °C |
| Cc1ccc(C(C)C)c(OCC(=O)O)c1 | 126 to 128 °C |
| O=C(O)c1ccc2nnnn2c1 | 216 to 218 °C |
| O=C(O)c1cc(Br)ccc1I | 120 to 122 °C |
| O=C(O)Cn1cc2ccccc2n1 | 248 to 250 °C |
| c1n[nH]c2c1CCNC2 | 134 to 136 °C |
| Cc1cccc(-c2cc(N)n(Cc3ccccc3)n2)c1 | 79 to 81 °C |

| Structure (SMILES) | melting point |
| --- | --- |
| O=C(O)c1c(F)ccc(S(=O)(=O)Cl)c1F | 107 to 111 °C |
| Nc1ccc(N2CCSCC2)c(Cl)c1 | 101 to 103 °C |
| Cc1ccc(S(=O)(=O)N(C)C)cc1C(=O)O | 173 to 175 °C |
| Oc1ccc2c(c1)CNCC2 | 194 to 196 °C |
| CC(NC(=O)c1[nH]nc2ccccc12)C(=O)O (configuration not stated) | 208 to 210 °C |
| Cc1nnc2ccc(Br)cn12 | 149 to 151 °C |
| Cc1cc(C(=O)CCl)c(C)s1 | 53 to 57 °C |
| Clc1ncnc2c1CCC2 | 39 to 41 °C |
| Nc1nc2ccccc2n2nnnc12 | 289 to 291 °C |
| CCOC(=O)c1nnc2ccccc2c1Cl | 53 to 55 °C |
| CCN1CCN(CC(=O)O)C(=O)C1=O | 200 to 202 °C |
| OCc1c(Cl)nc2ccccn12 | 177 to 179 °C |
| Nc1ccc2c(c1)CCN2C(=O)c1ccoc1 | 173 to 175 °C |
| O=S(=O)(Cl)c1ccc(C2CCCCC2)cc1 | 49 to 51 °C |
| CCOC(=O)/C(C#N)=C\Nc1ccc(OC(F)F)cc1 | 101 to 103 °C |
| O=Cc1cn(-c2ccccc2)nc1-c1cccnc1 | 110 to 112 °C |
| CC(CC(=O)O)(CC(=O)O)c1ccccc1 | 136 to 138 °C |
| Cc1noc(C)c1S(=O)(=O)NCCC(=O)O | 105 to 118 °C |
| CN(C)c1ccc(C#N)c(F)c1 | 56 to 58 °C |
| O=C(O)c1cnn2cccnc12 | 203 to 205 °C |
| NNC(=O)c1ccc(NS(=O)(=O)c2cccs2)cc1 | 178 to 180 °C |
| CC(Cl)C(=O)NCc1ccc(F)cc1 (configuration not stated) | 90 to 92 °C |
| O=C1CN=C(S)N1c1ccccc1 | 253 to 255 °C |
| O=C(O)CCN1C(=O)Cc2ccccc2C1=O | 148 to 150 °C |
| Cc1ccccc1-c1cc(N)n(C)n1 | 97 to 99 °C |

| Structure (SMILES) | melting point |
| --- | --- |
| Nc1ccccc1NC(=O)c1ccccc1 | 149 to 151 °C |
| CCCN1Cc2ccc(N)cc2C1 | 48 to 50 °C |
| COC(=O)c1ccc(C)c(S(=O)(=O)Cl)c1 | 45 to 47 °C |
| NC(=O)c1cccc2[nH]ccc12 | 138 to 140 °C |
| CCC(=O)c1cnn(C)c1 | 44 to 46 °C |
| CC(C)CC1(C)CC(=O)NC1=O (configuration not stated) | 81 to 83 °C |
| Cc1oc2ccccc2c1C=O | 69 to 71 °C |
| COc1ccc(-c2nn(-c3ccccc3)cc2C(=O)O)cc1OC | 188 to 190 °C |
| O=C(O)C1(O)CCSC1 (configuration not stated) | 99 to 101 °C |
| O=C(C(=O)N1CCOCC1)N1CCNCC1 | 127 to 129 °C |
| Cn1c(=O)c2cc(S(=O)(=O)Cl)cnc2n(C)c1=O | 171 to 173 °C |
| Cc1cc(C(=O)CCl)c(C)n1NC(=O)c1ccccc1 | 141 to 143 °C |
| NC(=O)c1ccn(-c2ccccc2)n1 | 149 to 151 °C |
| O=Cc1ccc(OCc2ccccn2)cc1 | 88 to 90 °C |
| CNc1ccnc2ccncc12 | 223 to 225 °C |
| CC(C)(C)OC(=O)NCC1CNc2ccccc21 (configuration not stated) | 80 to 82 °C |
| O=C(Nc1ncccc1O)c1ccc(C2SCCS2)cc1 | 114 to 116 °C |
| CCNC(=O)NC(=O)CN(C)Cc1ccccc1 | 62 to 64 °C |
| NC(=S)N1CCN(c2ccccn2)CC1 | 164 to 166 °C |
| Cc1cc(NC(=O)C(Br)C(C)C)no1 (configuration not stated) | 96 to 98 °C |
| CCc1ccc2c(c1)C(=O)C(=O)N2CC(=O)O | 166 to 168 °C |
| CC(C)(C)OC(=O)NC(CCS(C)(=O)=O)C(=O)O (configuration not stated) | 99 to 101 °C |
| O=C(O)Cn1ccc(=O)c2ccccc21 | 274 to 276 °C |
| O=C(O)c1cc(F)cc(S(=O)(=O)Cl)c1 | 136 to 138 °C |
| COc1ccc(C(=O)Nc2ccc(C(=O)O)s2)cc1 | 198 to 200 °C |

| Structure (SMILES) | melting point |
| --- | --- |
| CC(C)c1ccccc1Nc1nc2ccccc2s1 | 115 to 116 °C |
| CCOc1cc(Br)c(CC(=O)O)cc1OCC | 128 to 129 °C |
| C1CCC(c2nnn[nH]2)C1 | 119 to 121 °C |
| OCc1c(Cl)nc(Cl)n1-c1ccccc1 | 139 to 141 °C |
| COC(=O)CN(C)c1ccc(Br)cn1 | 92 to 94 °C |
| O=C(O)C(c1ccccc1)C1CC1 (configuration not stated) | 84 to 86 °C |
| CCOc1ccc(Nc2nc3ccccc3s2)cc1 | 169 to 171 °C |
| Cc1ccc2ncc(C#N)n2c1 | 126 to 128 °C |
| O=[N+]([O-])c1c(F)cccc1S(=O)(=O)Cl | 52 to 54 °C |
| Cn1cnnc1S(C)(=O)=O | 132 to 134 °C |
| CCC(CC)(C(=O)O)c1ccc(Cl)c(Cl)c1 | 94 to 96 °C |
| O=S1(=O)CCNCC12CCCCC2 | 99 to 101 °C |
| Cc1nc(N)n(-c2ccc(C#N)cc2)n1 | 270 to 272 °C |
| O=C(O)CNC(=O)NCc1cccc([N+](=O)[O-])c1 | 153 to 155 °C |
| COC(=O)c1ccc(C=CC(=O)O)cc1 | 236 to 238 °C |
| CC(=O)N1CCc2cc(NC(=O)CCl)ccc21 | 233 to 235 °C |
| CC(C)C(Br)C(=O)NC1CCCC1 (configuration not stated) | 99 to 101 °C |
| O=S(=O)(Cl)c1ccc(Br)c(C(F)(F)F)c1 | 29 to 31 °C |
| Cc1nn(CCCl)c(C)c1C(=O)O | 139 to 141 °C |
| O=C(O)C1(c2cccc(F)c2)CC1 | 115 to 117 °C |
| CSc1ccc(NC(=O)C(C)Cl)cc1 (configuration not stated) | 129 to 131 °C |
| Cc1noc2nc(C(C)C)cc(C(=O)O)c12 | 158 to 160 °C |
